# Data reported in US6750244B2, “Compounds active at a novel site on receptor-operated calcium channels useful for treatment of neurological disorders and diseases” (NPS Pharmaceuticals, Inc., priority 1993, dated 2004).
# Where two headings read alike, the source gives them in different places.
# Assays:
# NMDA receptor = test: Inhibition of NMDA/glycine-induced increases in intracellular calcium in cultured rat cerebellar granule cells (RCGC); format: cell-based; conditions: NMDA/glycine-induced increases in intracellular calcium, cultured rat cerebellar granule cells; read-out: IC50 (μM) vs. NMDA
# [1] = target: NMDA receptor-ionophore complex (site labeled by [3H]MK-801); test: Inhibition of [3H]MK-801 binding in rat cortical/hippocampal washed membrane preparations; conditions: read-out: IC50 (μM) vs. [3H]MK-801; rat cortical/hippocampal washed membranes
# sound-induced seizures = test: Sound-induced seizures in Frings mice (reflex epilepsy); format: in vivo; conditions: Mus musculus, Frings mice
# motor performance [2] = test: Acute motor impairment (rotorod) in mice; conditions: Frings mice, i.p.
# Method: (§1) In this assay, Frings and CF1 mice were injected with test compound and placed on a knurled rod which rotated at a speed of 6 rpm. The ability of the mice to maintain equilibrium for long periods of time was determined; those mice that were unable to maintain equilibrium on the rotorod for 1 min in each of 3 trials were considered impaired.
# [3] = Lethality (LD50) after oral administration in Frings mice; conditions: mouse, in vivo
# [4] = test system: mean arterial blood pressure; conditions: i.v.
# L-type calcium channel = test system: T1, L-type calcium channel; test: Inhibition of KCl depolarization-induced increases in intracellular calcium in cultured rat cerebellar granule cells; format: cell-based; conditions: cultured rat cerebellar granule cells; read-out: L-type calcium channel: estimated IC50, KCl depolarization-induced increases in intracellular calcium
# T1 construct: L-type calcium channel: estimated IC50, KCl depolarization-induced increases in intracellular calcium; other: cultured
# Text: The ability of arylalkylamines to inhibit dihydropyridine-sensitive Ca^2+ channels was examined in cerebellar granule cells and a rat aortic smooth muscle cell line, A7r5 cells.
# [5] = test system: delayed rectifier potassium channel; test: Inhibition of delayed rectifier potassium channel in cultured N1E-115 neuroblastoma cells; format: cell-based; conditions: read-out: Delayed rectifier potassium channel: estimated IC50
# [6] = test system: central muscarinic cholinergic receptor; format: binding, rat
# dopamine uptake site = target: T2, dopamine uptake site (Cavia porcellus, UniProt H0WCX4); test: Dopamine uptake binding assay: [3H]WIN-35,428 binding to guinea pig striatal membranes
# T2 construct: from tissue; host or cells: guinea pig striatal membranes (per the assay title)
# T2 sequence (H0WCX4 1-619): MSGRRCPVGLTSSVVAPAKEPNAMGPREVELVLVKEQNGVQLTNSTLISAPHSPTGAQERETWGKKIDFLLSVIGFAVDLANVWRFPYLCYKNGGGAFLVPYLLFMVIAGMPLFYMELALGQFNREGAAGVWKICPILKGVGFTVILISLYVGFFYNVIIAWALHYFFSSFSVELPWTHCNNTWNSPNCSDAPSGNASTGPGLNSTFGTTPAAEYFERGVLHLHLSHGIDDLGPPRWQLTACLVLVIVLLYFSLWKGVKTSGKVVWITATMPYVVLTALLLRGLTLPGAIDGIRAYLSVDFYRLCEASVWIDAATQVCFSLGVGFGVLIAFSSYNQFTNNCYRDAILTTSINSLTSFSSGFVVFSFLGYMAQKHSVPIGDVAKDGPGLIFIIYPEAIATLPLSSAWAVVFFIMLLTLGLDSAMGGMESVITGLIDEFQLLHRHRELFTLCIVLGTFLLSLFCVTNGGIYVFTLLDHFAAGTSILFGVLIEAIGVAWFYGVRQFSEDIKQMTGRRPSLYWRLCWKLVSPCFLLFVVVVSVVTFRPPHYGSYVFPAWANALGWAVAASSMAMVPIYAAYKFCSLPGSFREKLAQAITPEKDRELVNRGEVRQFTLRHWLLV
# [7] = target: T3, norepinephrine uptake site (Rattus norvegicus, UniProt Q63380); test: Norepinephrine uptake binding assay: [3H]desipramine binding to rat cortical membranes
# T3 construct: from tissue; host or cells: rat cortical membranes (per the assay title)
# T3 sequence (Q63380 1-617): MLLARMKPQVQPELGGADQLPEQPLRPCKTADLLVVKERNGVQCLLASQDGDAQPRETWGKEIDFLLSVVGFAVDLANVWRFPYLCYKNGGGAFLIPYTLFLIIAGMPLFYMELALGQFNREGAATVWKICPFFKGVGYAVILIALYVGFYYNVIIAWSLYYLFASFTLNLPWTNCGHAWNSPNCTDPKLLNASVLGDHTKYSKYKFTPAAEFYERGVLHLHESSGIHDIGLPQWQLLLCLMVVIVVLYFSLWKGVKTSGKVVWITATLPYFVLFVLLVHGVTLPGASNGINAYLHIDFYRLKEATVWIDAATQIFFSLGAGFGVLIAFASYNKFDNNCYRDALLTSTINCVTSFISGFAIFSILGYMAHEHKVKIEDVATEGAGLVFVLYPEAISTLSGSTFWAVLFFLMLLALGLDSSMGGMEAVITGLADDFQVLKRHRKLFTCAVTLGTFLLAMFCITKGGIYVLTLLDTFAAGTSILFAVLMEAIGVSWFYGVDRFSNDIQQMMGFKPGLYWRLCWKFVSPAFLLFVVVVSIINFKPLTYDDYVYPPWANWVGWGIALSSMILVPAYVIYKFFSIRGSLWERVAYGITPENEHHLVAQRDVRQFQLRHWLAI
# serotonin uptake site = target: T4, serotonin uptake site (Rattus norvegicus, UniProt P31652); test: Serotonin uptake binding assay: [3H]citalopram binding to rat forebrain membranes
# T4 construct: from tissue; host or cells: rat forebrain membranes (per the assay title)
# T4 sequence (P31652 whole entry): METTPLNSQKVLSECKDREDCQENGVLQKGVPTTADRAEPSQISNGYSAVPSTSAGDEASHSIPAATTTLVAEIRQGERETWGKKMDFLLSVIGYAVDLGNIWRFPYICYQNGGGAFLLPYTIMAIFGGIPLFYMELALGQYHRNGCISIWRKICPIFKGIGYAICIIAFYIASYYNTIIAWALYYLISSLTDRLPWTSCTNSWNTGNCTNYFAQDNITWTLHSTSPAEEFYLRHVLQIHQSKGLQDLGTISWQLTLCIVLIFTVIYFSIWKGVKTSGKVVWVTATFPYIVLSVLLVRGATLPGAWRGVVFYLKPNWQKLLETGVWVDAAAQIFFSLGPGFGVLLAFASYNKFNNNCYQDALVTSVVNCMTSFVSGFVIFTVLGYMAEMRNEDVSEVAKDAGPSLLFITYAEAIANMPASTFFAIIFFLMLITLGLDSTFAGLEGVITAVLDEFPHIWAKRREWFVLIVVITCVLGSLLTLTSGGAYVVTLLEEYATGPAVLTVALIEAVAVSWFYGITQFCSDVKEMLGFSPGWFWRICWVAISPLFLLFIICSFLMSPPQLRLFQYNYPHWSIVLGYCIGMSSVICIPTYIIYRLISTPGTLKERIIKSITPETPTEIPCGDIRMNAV
# [8] = test system: maximal electroshock-induced seizures; test: Maximal electroshock-induced seizures in rats; format: in vivo; conditions: rats, oral, 25 mg/kg
# thermal nociception [9] = format: in vivo, rats; conditions: 25 mg/kg i.p.
# Method: In these experiments, a 52° C. hot plate was used as the nociceptive stimulus.
# thermal nociception [10] = format: in vivo, rats; conditions: 25 mg/kg i.p.; remark: listed apart in the source
# Method: In this standard assay, the thermal nociceptive stimulus was 52° C. warm water with the latency to tail flick or withdrawal taken as the endpoint.
# in vivo = conditions: Frings, mouse, in vivo, ip
# Method: as §1
# chronic neuropathic pain = test: Rat model of chronic neuropathic pain; format: in vivo, rats
# focal ischemic stroke = test: Rat model of focal ischemic stroke (vessel occlusion); format: in vivo, rats; conditions: i.p. 2 mg/kg 30 min prior to vessel occlusion and 2 mg/kg 3 hr post-occlusion
# neuronal vacuolization = conditions: i.p.
# motor performance [11] = test: Motor toxicity (TD50) in rats; conditions: rats, oral, 25 mg/kg
# behavior [12] = test: Behavioral effects in conscious beagle dogs
# behavior [13] = test: Behavioral effects in conscious male NMRI mice
# [14] = test system: mean arterial pressure, heart rate, ECG; test: Cardiovascular activity in conscious beagle dogs
# [15] = 3 mg/kg i.v. (60 sec bolus injection)
# [16] = 10 mg/kg i.v. (60 sec bolus injection)
smiles,measurement,setting,value
"CC(N)CC(c1cccc(F)c1)c1cccc(F)c1 (stereo not shown) [Compound 22, 3,3-bis(3-fluorophenyl)-1-methyl-1-propylamine]",IC50,NMDA receptor,0.145 µM
same,IC50,[1],3.45 µM
same,ED50,sound-induced seizures; ip,4.9 mg/kg
same,ED50,sound-induced seizures; oral,5.1 mg/kg
same,TD50 (inverted grid),motor performance [2],26.8 mg/kg
same,LD50,[3],18.3 mg/kg
same,no significant cardiovascular activity in anesthetized rats at doses up to,[4],≤ 4.47 mg/kg
"C[C@@H](CN)C(c1cccc(F)c1)c1cccc(F)c1 [Compound 33, 3,3-bis(3-fluorophenyl)-2-methyl-1-propylamine]",IC50,NMDA receptor,0.06 µM
same,IC50,[1],0.181 µM
same,IC50,L-type calcium channel,1600 nM
same,IC50,[5],> 10 µM
same,Central muscarinic cholinergic receptor: percent block of [3H]QNB binding,[6]; at 0.1 μM,42% at
same,Central muscarinic cholinergic receptor: percent block of [3H]QNB binding,[6]; at 10 μM,0.199% at
same,"Monoamine uptake binding assays: dopamine uptake binding assay, percent block",dopamine uptake site; at 0.1 μM,23% at
same,"Monoamine uptake binding assays: dopamine uptake binding assay, percent block",dopamine uptake site; at 10 μM,0.1^f86% at
same,"Monoamine uptake binding assays: norepinephrine uptake binding assay, percent block",[7]; at 0.1 μM,10^f2% at
same,"Monoamine uptake binding assays: norepinephrine uptake binding assay, percent block",[7]; at 10 μM,0.1^g54% at
same,"Monoamine uptake binding assays: serotonin uptake binding assay, percent block",serotonin uptake site; at 0.1 μM,10^g14% at
same,"Monoamine uptake binding assays: serotonin uptake binding assay, percent block",serotonin uptake site; at 10 μM,0.1^h89% at
same,ED50,sound-induced seizures; ip,4.6 mg/kg
same,anticonvulsant activity against maximal electroshock-induced seizures,[8],significant anticonvulsant activity
same,"analgesic activity, rat 52° C. hot plate test",thermal nociception [9],no significant analgesic activity
same,"analgesic activity, rat 48° C. tail flick test",thermal nociception [10],no significant analgesic activity
same,TD50,in vivo,27.8 mg/kg
same,"analgesic activity, chronic neuropathic pain","chronic neuropathic pain; i.p., doses of 3-10 mg/kg",significant analgesic activity
same,"analgesic activity, chronic neuropathic pain","chronic neuropathic pain; i.th., doses ranging from 15 to 80 μg",significant analgesic activity
same,neuroprotectant activity in a rat model of focal ischemic stroke,focal ischemic stroke,significant neuroprotectant activity
same,dose without neuronal vacuolization,neuronal vacuolization,30 mg/kg
same,no significant cardiovascular activity in anesthetized rats at doses up to,[4],up to 3 mg/kg
same,motor toxicity,motor performance [11],no motor toxicity apparent
same,behavioral effects,behavior [12]; [15],licking of the mouth
same,behavioral effects,behavior [12]; [16],"dilated pupils, whole body tremors, incoordination, licking of the mouth, salivation, and panting"
same,behavioral effects,behavior [13]; 8 mg/kg i.p.,"excitation, increased reactivity to touch, and hypothermia"
same,behavioral effects,behavior [13]; 64 mg/kg i.p.,convulsions
same,behavioral effects,behavior [13]; 2 and 4 mg/kg i.p.,no behavioral effects
same,behavioral effects,behavior [13]; 16 and 32 mg/kg i.p.,"excitation, Straub tail, tremor, jumping, stereotypies, hypothermia, and mydriasis"
same,behavioral effects,behavior [13]; 128 and 256 mg/kg i.p.,convulsions and death
same,cardiovascular activity,[14]; 0.3 mg/kg i.v. (60 sec bolus injection),no significant cardiovascular activity
same,mean arterial pressure,[14]; 1 mg/kg i.v. (60 sec bolus injection),transient increases in mean arterial pressure
same,mean arterial pressure,[14]; [15],larger magnitude and longer duration effects
same,heart rate,[14]; [16],a transient increase in heart rate
same,mean arterial pressure,[14]; [16],larger magnitude and longer duration effects
same,changes in the ECG,[14]; doses up to 10 mg/kg i.v. (60 sec bolus injection),no significant drug-induced changes in the ECG
